Measurements reported in publication PMC7504466, “In-Vitro and In-Silico Evaluations of Heterocyclic-Containing Diarylpentanoids as Bcl-2 Inhibitors Against LoVo Colorectal Cancer Cells” (Molecules, 2020).

Tests used:
T84 cells = experiment: MTT cytotoxicity assay, T84 cells; format: cell-based; conditions: Homo sapiens, 72 h post-treatment, read-out: IC50 (µM) KRAS T84
Description: (§1) The in-vitro cytotoxic activity of the synthesized compounds on seven human CRC cell lines including KRAS (T84, SW620, LoVo) and BRAF (HT29, NCI-H508, RKO and LS411N) mutated cells were determined by MTT assay as previously described. The IC50 values obtained are summarized in Table 2 in which 5-FU and normal human dermal fibroblasts (NHDF) were used as controls. Meanwhile, a heatmap (Figure 3) was also generated using GraphPad Prism v7.0 (GraphPad Software, La Jolla, CA, USA) to visualize the cytotoxic trends of synthesized compounds graphically.
(§2) A panel of KRAS (T84, SW620 and LoVo) and BRAF (HT29, NCI-H508, RKO and LS411N) mutated human CRC cell lines were grown in Dulbecco’s modified Eagle’s medium (DMEM) containing 10% fetal bovine serum (FBS) and 1% penicillin/streptomycin at 37 °C under 5% CO2 while NHDF cells were cultured in DMEM with 5% FBS under the same condition. The culture medium was replenished every two days until the cells reached 80–90% confluency for further usage. All cell lines (T84, ATCC®CCL-248™; SW620, ATCC®CCL-227™; LoVo, ATCC®CCL-229™; HT-29, ATCC®HTB-38; NCI-H508, ATCC®CCL-253™; RKO, ATCC®CRL-2577; LS411N, ATCC®CRL-2159; NHDF, ATCC® PCS-201-010™) were purchased from American Type culture Collections (ATCC, Manassas, VA, USA).
(§3) LoVo cells (1.5–5 × 10^3 cells/well) were seeded into a 96 well plate and incubated at 37 °C and 5% CO2 atmosphere for 24 h. On the following day, the cell media were replaced with 100 µL of test compounds at various concentration. The final concentration of DMSO in the well is 0.1%. After 72 h of incubation, culture medium was removed and 100 µL of MTT (thiazoyl blue tertrazolium bromide) solution (0.5 mg/mL in culture media) was added. The resultant plates were then further incubated at 37 °C for 4 h. Upon completion, the MTT solution was removed and the formazan salts formed were dissolved in 100 µL of DMSO. The absorbance was recorded with a microplate reader at 570 nm. The IC50 values of tested compounds were calculated from three independent experiments.

SW620 cells = experiment: MTT cytotoxicity assay, SW620 cells; format: cell-based; conditions: Homo sapiens, SW-620, 72 h post-treatment, read-out: IC50 (µM) KRAS SW620
Description: as §1, §2, §3

LoVo cells = experiment: MTT cytotoxicity assay, LoVo cells; format: cell-based; conditions: Homo sapiens, 72 h post-treatment, read-out: IC50 (µM) KRAS LoVo
Description: as §1, §2, §3

HT29 cells = experiment: MTT cytotoxicity assay, HT29 cells; format: cell-based; conditions: Homo sapiens, HT-29, 72 h post-treatment, read-out: IC50 (µM) BRAF HT29
Description: as §1, §2, §3

NCI-H508 cells = experiment: MTT cytotoxicity assay, NCI-H508 cells; format: cell-based; conditions: Homo sapiens, 72 h post-treatment, read-out: IC50 (µM) BRAF NCI-H508
Description: as §1, §2, §3

RKO cells = experiment: MTT cytotoxicity assay, RKO cells; format: cell-based; conditions: Homo sapiens, 72 h post-treatment, read-out: IC50 (µM) BRAF RKO
Description: as §1, §2, §3

LS411N cells = experiment: MTT cytotoxicity assay, LS411N cells; format: cell-based; conditions: Homo sapiens, LS-411N, 72 h post-treatment, read-out: IC50 (µM) BRAF LS411N
Description: as §1, §2, §3

[1] = test system: normal human dermal fibroblasts (NHDF); experiment: MTT cytotoxicity assay, normal human dermal fibroblasts; format: cell-based; conditions: 72 h post-treatment
Description: as §1, §2, §3

[2] = test system: human CRC cell lines (T84, SW620, LoVo, HT29, NCI-H508, RKO, LS411N); experiment: MTT cytotoxicity assay, panel of KRAS- and BRAF-mutated CRC cell lines; format: cell-based; conditions: several CRC cell lines, read-out: IC50 against several CRC cell lines
Description: as §1
A panel of KRAS (T84, SW620 and LoVo) and BRAF (HT29, NCI-H508, RKO and LS411N) mutated human CRC cell lines were grown in Dulbecco’s modified Eagle’s medium (DMEM) containing 10% fetal bovine serum (FBS) and 1% penicillin/streptomycin at 37 °C under 5% CO2 while NHDF cells were cultured in DMEM with 5% FBS under the same condition. The culture medium was replenished every two days until the cells reached 80–90% confluency for further usage. […]
LoVo cells (1.5–5 × 10^3 cells/well) were seeded into a 96 well plate and incubated at 37 °C and 5% CO2 atmosphere for 24 h. […] The absorbance was recorded with a microplate reader at 570 nm. The IC50 values of tested compounds were calculated from three independent experiments.

Row | SMILES | IC50 (T84 cells) | IC50 (SW620 cells) | IC50 (LoVo cells) | IC50 (HT29 cells) | IC50 (NCI-H508 cells) | IC50 (RKO cells) | IC50 (LS411N cells) | IC50 [1] | melting point | IC50 [2]
1 | COc1ccccc1C=C1CCCC(=Cc2ccccc2OC)C1=O [Compound 2a, 2,6-Bis(2-methoxybenzylidene)cyclohexanone] | > 10 µM | > 10 µM | > 10 µM | > 10 µM | > 10 µM | > 10 µM | > 10 µM | > 20 µM |  | 
2 | O=c1[nH]cc(F)c(=O)[nH]1 [Compound 5-FU, 5-fluorouracil, reference compound] | > 10 µM | > 10 µM | 3.3 µM | > 10 µM | 8.6 µM | 2.9 µM | 4.6 µM | > 20 µM |  | 
3 | O=C1C(=Cc2ccc(F)c(F)c2)CCCC1=Cc1ccc(F)c(F)c1 [Compound 2c, 2,6-Bis(3,4-difluorobenzylidene)cyclohexanone] | 3.3 µM | 3.2 µM | 3.3 µM | 5.4 µM | 3.3 µM | 2.6 µM | 3.7 µM | 12.9 µM | 90 to 91 °C | 
4 | O=C1C(=Cc2ccc(F)c(F)c2)CSCC1=Cc1ccc(F)c(F)c1 [Compound 2f, 3,5-Bis(3,4-difluorobenzylidene)tetrahydro-4H-thiopyran-4-one] | > 10 µM | 2.9 µM | 5.1 µM | > 10 µM | 6.2 µM | 2.4 µM | 5.9 µM | 2 µM |  | 2.4 to 6.2 µM
5 | O=C1C(=Cc2ccccc2Br)CCCC1=Cc1ccccc1Br [Compound 2b, 2,6-Bis(2-bromobenzylidene)cyclohexanone] | > 10 µM | 8.9 µM | > 10 µM | > 10 µM | 7.8 µM | > 10 µM | > 10 µM | > 20 µM |  | 
6 | COc1ccccc1C=C1CSCC(=Cc2ccccc2OC)C1=O [Compound 2d, 3,5-Bis(2-methoxybenzylidene)tetrahydro-4H-thiopyran-4-one] | > 10 µM | > 10 µM | 6.9 µM | > 10 µM | 5.3 µM | 7.1 µM | 5.8 µM | 9.7 µM | 120 to 121 °C | 
